{"source": "patent US20070172453A1", "about": "“Tolerogenic approach for type 1 diabetes” (priority 2002, published 2007)", "key": {"PBMCs [1]": {"tested_on": "PBMCs", "experiment": "IL10 transcription in PBMCs by TaqMan real-time PCR", "type": "cell-based, human", "details": "50 μM, 20 hours", "method": "Total RNA was extracted with the RNeasy Mini Kit (Qiagen, Calif., USA) from PBMCs isolated from 10 healthy controls and from 11 Type 1 diabetics, and cultured for 20 hours with IGF-2 B11-25 (SEQ ID NO:2)(50 μM) or Insulin B9-23 (SEQ ID NO:3 ) (50 μM). Total RNA was measured with a Nanodrop (NanoDrop Technologies, Wilmington, USA). Reverse transcription was performed with Transcriptor First Strand cDNA Synthesis Kit (Roche, Germany). PCR was performed with the following probes:\nIL10 transcripts were then quantified using a TaqMan procedure. Standard curves were established from a lot of plasmid containing IL10 according to the procedure described by other authors (Giulietti et al., Methods 25: 386, 2001). […] A strong positive relationship was evidenced between IL-10 concentrations as measured by ELISA and the number of IL10 transcripts as quantified by real-time PCR (R^2=0.62, P<0.0001; Spearman's test). Conclusions"}, "[2]": {"tested_on": "spleen cells from Igf2-/- and wt mice", "experiment": "IL-2 production by IGF-2-specific T cells (spleen cells) after immunization and in vitro stimulation", "type": "cell-based, mouse", "details": "spleen cells in culture with murine IGF-2-derived B11-25 after two i.p. injections", "method": "(§1) Mice immunization. Igf2^−/− and wt mice were injected i.p. with 5 μg of rmIGF-2 (R&D Systems) or with 5 μg of human insulin (Roche) to study the humoral response and with 50 μg of murine IGF-2-derived B11-25 (NEOSYSTEM)(SEQ ID NO:2) to analyze the cellular response. CFA (Sigma-Aldrich) (v/v) is used for the first injection and IFA (Sigma-Aldrich) (v/v) for the other injections. For humoral response, three injections separated by 20 days were performed. Blood test was performed 15 days after each injection in agreement with the Liege University ethic committee. For cellular response, two injections separated by 15 days were performed.\nIL-2 production. After 48, 72, and 96 h of MLR or after 24 and 48 h of specific T cell culture, 800 μl were removed of each condition and IL-2 production released by Igf2^−/− and wt T cells in MLR was assessed by specific ELISA (Biosource Europe).\nStatistical analyses. The t test was used to compare Igf2^−/− and wt mice in IL-2 production and Ab production after immunization. The level of significance was p<0.05."}, "[3]": {"tested_on": "peripheral blood mononuclear cells (PBMCs)", "experiment": "ELISPOT of IFN-γ and IL-10 secreting cells in PBMCs of DQ8+ type 1 diabetic adolescents", "type": "cell-based, human", "details": "for number of IFN-γ secreting cells / number of IL-10 secreting cells / ratio of IL-10/IFN-γ: peptide 50 μM, DQ8+ type 1 diabetic adolescents; for number of IFN-γ secreting cells / number of IL-10 secreting cells: 48 hours, 1×10^5 PBMCs/well, ±SEM", "method": "Ten diabetic patients were selected (6 females, 4 males; age range: 7-16 years of age) which were positive for the DQ8 allele. With the assistance of endocrine pediatricians, appropriate arrangements were made for two sampling sessions. Written and informed consent was obtained from the parents of the adolescents. For each patient, 20 ml of blood was collected in tubes containing EDTA. These tubes were immediately sent to Cypro SA (Brussels) where peripheral blood mononuclear cells (PBMCs) were isolated using the Lymphoprep™ (Invitrogen) isolation technique.\nELISPOT Assays (Cypro): The general methodology has been described by Tary-Lehmann et al. (see, e.g., Tary-Lahmann et al. (1998) Transplantation 66:219-224). Briefly, PBMCs were seeded at a concentration of 1×10^5/well in 96-well plates coated with anti-human IFN-γ monoclonal antibody (mAb) (Serpime/Nodia) or anti-IL-10 mAb (BD-Pharmingen) in the presence or absence of either PHA (Sigma, 1 μg/ml)+LPS (Sigma, 1 μg/ml), Purified Protein Derivative (PPD, 5 μg/ml), Insulin B9-23 (SEQ ID NO:3 ) (10 and 50 μM), IGF-2 B11-25 (SEQ ID NO:2 )(10 and 50 μM After 48 hours of incubation at 37° C., 5% CO2 on a plane surface, wells were washed three times with PBS Tween 0.25%, then blot dried.\nAfter 1 hour-incubation in a humid room at ambient temperature, the plates were washed and the substrate AEC (3-amino-9-ethylcarazole)+30% H2O2 were added. After 15 minutes (for IFN-γ) or 30 minutes (for IL-10) of incubation at ambient temperature, spots appeared and the reaction was stopped by washing the plates under water. After drying, the spots were counted by image analyzer assisted by computer with filters specific for each cytokine.\nA Wilcoxon test was used for statistical analyses (non-parametric paired values)."}, "PBMCs [4]": {"tested_on": "PBMCs", "experiment": "IL-10 concentration in PBMC culture supernatants by ELISA", "type": "cell-based, human", "details": "20h-culture", "method": "PBMCs were isolated from the blood of 10 healthy controls and 13 adult type 1 diabetics. After a 20h-culture, IL-10 concentration in the supernatants was measured using a specific ELISA (BioSource, Nivelles, Belgium)."}, "[5]": {"tested_on": "peripheral blood mononuclear cells (PBMCs)", "experiment": "ELISpot of IL-10 secreting cells in PBMCs from healthy controls and adult Type 1 diabetics", "type": "cell-based, human", "details": "50 μM, 48h", "method": "In comparison to the Insulin B9-23 peptide (SEQ ID NO:3), the presentation of IGF-2 B11-25 (SEQ ID NO:2) increases the number of IL-10 secreting cells in peripheral blood mononuclear cells (PBMCs) from adult Type I diabetics. PBMCs were isolated by a conventional method from the blood of 6 healthy controls and 18 adult Type 1 diabetic patients. The PBMCs were cultured for 48h in 96-well dishes in the presence of IGF-2 B11-25 (SEQ ID NO:2)(50 μM) or […] (50 μM).\nThe data are presented in FIG. 4 as the number of spots per 10^5 cells. Statistical analyses were performed using Wilcoxon's test."}, "Igf2-/- and wt mice [6]": {"tested_on": "Igf2-/- and wt mice", "experiment": "Anti-IGF-2 humoral response after i.p. immunization of Igf2-/- and wt mice (ELISA)", "type": "in vivo, mouse", "details": "i.p. immunization 5 μg", "method": "as §1\n(§2) Dosage of anti-IGF-2 and anti-insulin Abs. Abs against IGF-2 and insulin were detected and quantified using a specific ELISA procedure. Microplates (Nunc Maxisorp 468667; VVWR International) were incubated overnight at 4° C. with 2 μg/ml rmIGF-2 (R&D Systems) or 5 μg/ml human insulin (Roche) in 100 μl of 0.1 M NaHCO3 (pH 8.4). From this step, the procedure was identical between the two kinds of ELISA. SL buffer (0.01 M phosphate buffer, pH 7.4) was used as the basic buffer, and all reactions were incubated at 37° C. under agitation. […] The reaction was stopped with 50 μl of 0.4 N HCl, and the absorbance was measured at 450-620 nm with a spectrophotometer."}, "[7]": {"tested_on": "CD4-mediated, HLA-II restricted immune response", "details": "patients with IDDM; cited from earlier work"}, "NOD mice": {"tested_on": "NOD mice", "details": "cited from earlier work"}, "Igf2-/- and wt mice [8]": {"tested_on": "Igf2-/- and wt mice", "experiment": "Anti-insulin humoral response after i.p. immunization of Igf2-/- and wt mice (ELISA)", "type": "in vivo, mouse", "details": "three i.p. injections, mice with day 0 anti-insulin Ab lower than 1 in OD", "method": "as §1\nas §2, with “spectrophotometer. […]” for “spectrophotometer.”"}, "[9]": {"details": "cited from earlier work"}}, "data": [{"substance": "GELVDTLQFVCGDRG (listed as Homo sapiens) [IGF-2 B11-25]", "values": [{"measurement": "IL10 transcription", "setting": "PBMCs [1]; PBMCs from adult Type 1 diabetics", "value": "very significantly increases"}, {"measurement": "IL10 transcription", "setting": "PBMCs [1]; PBMCs from healthy controls", "value": "very significantly increases"}, {"measurement": "IL-2 production, Igf2-/- compared with wt mice", "setting": "[2]", "value": "significant increase of IL-2 production"}, {"measurement": "ratio IL-10/IFN-γ, fold higher than after insulin B9-23", "setting": "[3]; 50 μM, versus insulin B9-23", "value": "~7", "unit": "fold"}, {"measurement": "number of IFN-γ secreting cells", "setting": "[3]", "value": "45.60±11.67"}, {"measurement": "number of IL-10 secreting cells", "setting": "[3]", "value": "1162±208.6"}, {"measurement": "ratio of IL-10/IFN-γ", "setting": "[3]", "value": "67.36±37.58"}, {"measurement": "IL-10 concentration in supernatants versus basal conditions or Insulin B9-23", "setting": "PBMCs [4]; PBMC cultures from Type 1 diabetics", "value": "significantly increased"}, {"measurement": "IL-10 concentration in supernatants versus basal conditions or Insulin B9-23", "setting": "PBMCs [4]; PBMC cultures from healthy controls", "value": "significantly increased"}, {"measurement": "number of IL-10 secreting cells versus Insulin B9-23", "setting": "[5]; PBMCs from healthy controls", "value": "no significant difference"}, {"measurement": "number of IL-10 secreting cells versus Insulin B9-23", "setting": "[5]; PBMCs of adult Type 1 diabetics", "value": "significantly higher"}]}, {"substance": "IGF-2: rmIGF-2 (R&D Systems), insulin-like growth factor 2 used for mice immunization", "values": [{"measurement": "anti-IGF-2 humoral response", "setting": "Igf2-/- and wt mice [6]; Igf2-deficient mice", "value": "rapidly induced anti-IGF-2 Abs"}, {"measurement": "anti-IGF-2 T-dependent humoral response (IgG1, IgG2a, IgG2b)", "setting": "Igf2-/- and wt mice [6]; wt mice", "value": "no T-dependent response was observed"}]}, {"substance": "SHLVEALYLVCGERG (listed as Homo sapiens) [insulin B9-23, reference compound]", "values": [{"measurement": "number of IFN-γ secreting cells", "setting": "[3]", "value": "88.90±23.82"}, {"measurement": "number of IL-10 secreting cells", "setting": "[3]", "value": "701.8±160.9"}, {"measurement": "ratio of IL-10/IFN-γ", "setting": "[3]", "value": "10.22±1.99"}, {"measurement": "IFN-γ production in response to peptide presentation", "setting": "[7]", "value": "high production of IFN-γ"}, {"measurement": "anaphylaxis", "setting": "NOD mice", "value": "induces fatal anaphylaxis"}, {"measurement": "incidence of diabetes", "setting": "NOD mice", "value": "accelerates incidence of diabetes"}]}, {"substance": "insulin: human insulin (Roche) for mice immunization; insulin given orally or subcutaneously in cited trials", "values": [{"measurement": "anti-insulin Ig-specific humoral response, Igf2-/- compared with Igf2+/+ mice", "setting": "Igf2-/- and wt mice [8]", "value": "higher anti-insulin Ig-specific humoral response"}, {"measurement": "protection of residual β cell function", "setting": "[9]; oral administration, recent-onset IDDM", "value": "failed to protect the residual β cell function"}, {"measurement": "delay or prevention of onset of disease", "setting": "[9]; subcutaneous administration, high-risk relatives of patients with IDDM", "value": "did not delay or prevent the onset of disease"}]}]}
